Experimental data as given in US5730968A, “Segmented chelating polymers as imaging and therapeutic agents” (Sterling Winthrop Inc., priority 1994, dated 1998).

Assay: blood pool retention time in rodents, against […]
Assay type: in vivo
From the text: Retention time in the chart below is reported as the blood pool half life, T 1/2 (minutes) for half of the composition to be depleted from the blood pool.

Compound: CNC[C@H](O)[C@@H](O)[C@H](O)[C@H](O)CO.CNC[C@H](O)[C@@H](O)[C@H](O)[C@H](O)CO.O=C([O-])CN(CCN(CC(=O)[O-])CC(=O)O)CCN(CC(=O)[O-])CC(=O)O.[Gd+3] [Magnevist]
- Blood Pool T1/2 (blood pool half life, for half of the composition to be depleted from the blood pool): 12 min
